Reference: patent publication US12195482B1 (Arcus Biosciences, Inc., priority 2022, dated 2025)

How the values were obtained:
[1] = target: T1, p-AXL (Homo sapiens, UniProt P30530); test: Axl phosphorylation inhibition ELISA in HEK293T cells transfected with NanoLuc-tagged AXL; type: cell-based; conditions: 1 h compound incubation, media (OptiMEM)
T1 construct: expressed in transfected cells; host or cells: HEK293T
T1 sequence (P30530 26-894): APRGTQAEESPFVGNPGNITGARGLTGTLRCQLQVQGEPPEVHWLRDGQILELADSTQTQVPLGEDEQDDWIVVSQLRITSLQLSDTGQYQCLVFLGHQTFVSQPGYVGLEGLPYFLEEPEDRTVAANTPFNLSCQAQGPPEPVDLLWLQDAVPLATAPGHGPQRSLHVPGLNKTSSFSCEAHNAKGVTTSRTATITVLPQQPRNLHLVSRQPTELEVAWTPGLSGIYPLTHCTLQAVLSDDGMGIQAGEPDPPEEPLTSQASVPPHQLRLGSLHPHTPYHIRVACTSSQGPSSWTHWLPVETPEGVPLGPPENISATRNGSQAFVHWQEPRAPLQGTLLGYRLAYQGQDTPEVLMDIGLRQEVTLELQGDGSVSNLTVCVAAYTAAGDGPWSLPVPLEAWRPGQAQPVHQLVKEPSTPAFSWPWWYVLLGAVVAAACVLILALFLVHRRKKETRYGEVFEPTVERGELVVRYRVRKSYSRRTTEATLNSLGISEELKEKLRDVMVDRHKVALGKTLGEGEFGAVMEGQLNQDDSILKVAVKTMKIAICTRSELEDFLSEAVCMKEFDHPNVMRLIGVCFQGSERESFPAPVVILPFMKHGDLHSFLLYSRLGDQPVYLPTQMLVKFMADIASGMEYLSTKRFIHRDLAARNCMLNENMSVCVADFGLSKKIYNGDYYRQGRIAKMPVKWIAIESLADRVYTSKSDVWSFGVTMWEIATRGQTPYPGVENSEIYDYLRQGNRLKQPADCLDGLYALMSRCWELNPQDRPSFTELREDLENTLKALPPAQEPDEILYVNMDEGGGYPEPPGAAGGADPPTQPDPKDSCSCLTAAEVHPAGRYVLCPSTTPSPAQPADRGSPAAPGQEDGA
Outline: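 HEK293T cells transiently transfected one day earlier with NanoLuc-tagged AXL were exposed to 22-point 2-fold compound dilutions for 1 h at 37° C (70,000 cells/well), then lysed. Lysates captured on anti-phospho-tyrosine coated plates for 2 h; bound p-AXL read by NanoLuc luminescence; IC50 from 4-parameter logistic fit.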

[2] = target: T2, Axl (Homo sapiens, UniProt P30530); test: Biochemical potency, HTRF KinEASE-TK kinase assay; parameters: purchased Invitrogen; conditions: 5 nM AXL, 700 μM ATP
T2 sequence (P30530 26-894): T1 sequence (P30530 26-894)
Outline: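 Phosphorylation of a biotinylated tyrosine-kinase peptide (800 nM) by AXL (5 nM) or TYRO3/MER (1 nM) is measured at 700 µM ATP after 2 h at room temperature, following 1 h enzyme–compound preincubation. Signal is the time-resolved FRET ratio, converted to percent activity.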

Structure (SMILES) | IC50 [1] [nM] | IC50 [2] [nM]
C[C@H]1COC(=O)N1c1cccnc1-c1ccc(-c2n[nH]c3ncc(-c4ccc5c(c4)CC[C@@H](N4C6COCC4C6)CC5)cc23)cc1 [Example 125, (4S)-4-Methyl-3-[2-(4-{5-[(7S)-7-{3-oxa-6-azabicyclo[3.1.1]heptan-6-yl}-6,7,8,9-tetrahydro-5H-benzo[7]annulen-2-yl]-1H-pyrazolo[3,4-b]pyridin-3-yl}phenyl)pyridin-3-yl]-1,3-oxazolidin-2-one] | < 100 | < 100
Cn1cnnc1-c1ccc(-c2n[nH]c3ncc(-c4ccc5c(c4)CC[C@@H](N4C6COCC4C6)CC5)cc23)cc1 [Example 169, 6-[(7S)-2-{3-[4-(4-Methyl-4H-1,2,4-triazol-3-yl)phenyl]-1H-pyrazolo[3,4-b]pyridin-5-yl}-6,7,8,9-tetrahydro-5H-benzo[7]annulen-7-yl]-3-oxa-6-azabicyclo[3.1.1]heptane] | < 100 | < 100
CO[C@H]1C[C@@H](N[C@H]2CCc3ccc(-c4cnc5[nH]nc(-c6ccc(-c7ncccc7C)cc6)c5c4)cc3CC2)C1 [Example 131, (7S)-2-{3-[4-(3-Methylpyridin-2-yl)phenyl]-1H-pyrazolo[3,4-b]pyridin-5-yl}-N-[cis-3-methoxycyclobutyl]-6,7,8,9-tetrahydro-5H-benzo[7]annulen-7-amine] | 100 to 1000 | < 100
O=C1CCCN1c1cccnc1-c1ccc(-c2c[nH]c3ncc(-c4ccc5c(c4)CC[C@@H](N4C6COCC4C6)CC5)cc23)cc1 [Example 7, 1-[2-(4-{5-[(7S)-7-{3-Oxa-6-azabicyclo[3.1.1]heptan-6-yl}-6,7,8,9-tetrahydro-5H-benzo[7]annulen-2-yl]-1H-pyrrolo[2,3-b]pyridin-3-yl}phenyl)pyridin-3-yl]pyrrolidin-2-one] | < 100 | < 100
Cc1ncc(C)c(-c2ccc(-c3c[nH]c4ncc(-c5ccc6c(c5)CC[C@@H](N5C7COCC5C7)CC6)cc34)cc2)n1 [Example 123, 6-[(7S)-2-{3-[4-(2,5-Dimethylpyrimidin-4-yl)phenyl]-1H-pyrrolo[2,3-b]pyridin-5-yl}-6,7,8,9-tetrahydro-5H-benzo[7]annulen-7-yl]-3-oxa-6-azabicyclo[3.1.1]heptane] | < 100 | < 100
c1ccc(-c2ccc(-c3n[nH]c4ncc(-c5ccc6c(c5)CC[C@@H](N5C7COCC5C7)CC6)cc34)cc2)nc1 [Example 154, 6-[(7S)-2-{3-[4-(Pyridin-2-yl)phenyl]-2H-pyrazolo[3,4-b]pyridin-5-yl}-6,7,8,9-tetrahydro-5H-benzo[7]annulen-7-yl]-3-oxa-6-azabicyclo[3.1.1]heptane] | < 100 | < 100
Cc1ncc(C)c(-c2ccc(-c3n[nH]c4ncc(-c5ccc6c(c5)CC[C@@H](N5C7COCC5C7)CC6)cc34)cc2)n1 [Example 122, 6-[(7S)-2-{3-[4-(2,5-Dimethylpyrimidin-4-yl)phenyl]-1H-pyrazolo[3,4-b]pyridin-5-yl}-6,7,8,9-tetrahydro-5H-benzo[7]annulen-7-yl]-3-oxa-6-azabicyclo[3.1.1]heptane] | < 100 | < 100
Cc1cccnc1-c1ccc(-c2n[nH]c3ncc(-c4ccc5c(c4)CC[C@@H](N[C@H]4CCCOC4)CC5)cc23)cc1 [Example 129, (3S)—N-[(7S)-2-{3-[4-(3-Methylpyridin-2-yl)phenyl]-1H-pyrazolo[3,4-b]pyridin-5-yl}-6,7,8,9-tetrahydro-5H-benzo[7]annulen-7-yl]oxan-3-amine] | < 100 | < 100
Cc1cccnc1-c1ccc(-c2n[nH]c3ncc(-c4ccc5c(c4)CC[C@@H](N4C[C@@H]6C[C@H]4CO6)CC5)cc23)cc1 [Example 130, (1S,4S)-5-[(7S)-2-{3-[4-(3-Methylpyridin-2-yl)phenyl]-1H-pyrazolo[3,4-b]pyridin-5-yl}-6,7,8,9-tetrahydro-5H-benzo[7]annulen-7-yl]-2-oxa-5-azabicyclo[2.2.1]heptane] | < 100 | < 100
C[C@@H]1CCCN1[C@@]1(C)CCc2ccc(-c3cnc4[nH]cc(-c5ccc(-c6ccccn6)cc5)c4c3)cc2CC1 [Example 156, 2-(4-{5-[(7S)-7-Methyl-7-[(2R)-2-methylpyrrolidin-1-yl]-6,7,8,9-tetrahydro-5H-benzo[7]annulen-2-yl]-1H-pyrrolo[2,3-b]pyridin-3-yl}phenyl)pyridine] | 100 to 1000 | < 100
Cn1ccnc1-c1ccc(-c2n[nH]c3ncc(-c4ccc5c(c4)CC[C@@H](N4C6COCC4C6)CC5)cc23)cc1 [Example 111, 6-[(7S)-2-{3-[4-(1-Methyl-1H-imidazol-2-yl)phenyl]-1H-pyrazolo[3,4-b]pyridin-5-yl}-6,7,8,9-tetrahydro-5H-benzo[7]annulen-7-yl]-3-oxa-6-azabicyclo[3.1.1]heptane] | < 100 | < 100
c1cnc(-c2ccc(-c3n[nH]c4ncc(-c5ccc6c(c5)CC[C@@H](N5C7COCC5C7)CC6)cc34)cc2)c(C2CC2)c1 [Example 179, 6-[(7S)-2-{3-[4-(3-Cyclopropylpyridin-2-yl)phenyl]-1H-pyrazolo[3,4-b]pyridin-5-yl}-6,7,8,9-tetrahydro-5H-benzo[7]annulen-7-yl]-3-oxa-6-azabicyclo[3.1.1]heptane] | 100 to 1000 | < 100
CN(C(=O)C1CC1)c1cccnc1-c1ccc(-c2n[nH]c3ncc(-c4ccc5c(c4)CC[C@@H](N4C6COCC4C6)CC5)cc23)cc1 [Example 128, N-Methyl-N-[2-(4-{5-[(7S)-7-{3-oxa-6-azabicyclo[3.1.1]heptan-6-yl}-6,7,8,9-tetrahydro-5H-benzo[7]annulen-2-yl]-1H-pyrazolo[3,4-b]pyridin-3-yl}phenyl)pyridin-3-yl]cyclopropanecarboxamide] | < 100 | < 100
c1ccc(-c2ccc(-c3c[nH]c4ncc(-c5ccc6c(c5)CC[C@@H](N5C7COCC5C7)CC6)cc34)cc2)nc1 [Example 155, 6-[(7S)-2-{3-[4-(Pyridin-2-yl)phenyl]-1H-pyrrolo[2,3-b]pyridin-5-yl}-6,7,8,9-tetrahydro-5H-benzo[7]annulen-7-yl]-3-oxa-6-azabicyclo[3.1.1]heptane] | 100 to 1000 | < 100
Cc1cc(F)cnc1-c1ccc(-c2c[nH]c3ncc(-c4ccc5c(c4)CC[C@@H](N4C6COCC4C6)CC5)cc23)cc1 [Example 29, 6-[(7S)-3-[3-[4-(5-Fluoro-3-methylpyridin-2-yl)phenyl]-1H-pyrrolo[2,3-b]pyridin-5-yl]-6,7,8,9-tetrahydro-5H-benzo[7]annulen-7-yl]-3-oxa-6-azabicyclo[3.1.1]heptane] | 100 to 1000 | < 100
Cc1nccnc1-c1ccc(-c2n[nH]c3ncc(-c4ccc5c(c4)CC[C@@H](N4C6COCC4C6)CC5)cc23)cc1 [Example 175, 6-[(7S)-2-{3-[4-(3-Methylpyrazin-2-yl)phenyl]-1H-pyrazolo[3,4-b]pyridin-5-yl}-6,7,8,9-tetrahydro-5H-benzo[7]annulen-7-yl]-3-oxa-6-azabicyclo[3.1.1]heptane] | < 100 | < 100
Cc1ccnnc1-c1ccc(-c2n[nH]c3ncc(-c4ccc5c(c4)CC[C@@H](N4C6COCC4C6)CC5)cc23)cc1 [Example 176, 6-[(7S)-2-{3-[4-(4-Methylpyridazin-3-yl)phenyl]-1H-pyrazolo[3,4-b]pyridin-5-yl}-6,7,8,9-tetrahydro-5H-benzo[7]annulen-7-yl]-3-oxa-6-azabicyclo[3.1.1]heptane] | < 100 | < 100
CC(C)(O)c1ccccc1-c1ccc(-c2n[nH]c3ncc(-c4ccc5c(c4)CC[C@@H](N4C6COCC4C6)CC5)cc23)cn1 [Example 113, 2-[2-(5-{5-[(7S)-7-{3-Oxa-6-azabicyclo[3.1.1]heptan-6-yl}-6,7,8,9-tetrahydro-5H-benzo[7]annulen-2-yl]-1H-pyrazolo[3,4-b]pyridin-3-yl}pyridin-2-yl)phenyl]propan-2-ol] | < 100 | < 100
FC(F)Oc1cccnc1-c1ccc(-c2n[nH]c3ncc(-c4ccc5c(c4)CC[C@@H](N4C6COCC4C6)CC5)cc23)cc1 [Example 99, 6-[(7S)-2-(3-{4-[3-(Difluoromethoxy)pyridin-2-yl]phenyl}-1H-pyrazolo[3,4-b]pyridin-5-yl)-6,7,8,9-tetrahydro-5H-benzo[7]annulen-7-yl]-3-oxa-6-azabicyclo[3.1.1]heptane] | < 100 | < 100
